Values quoted from earlier work, collected in patent EP0497915B1, “hPTH (1-37) FRAGMENT, ITS PRODUCTION, DRUG CONTAINING IT AND ITS USE” (HaemoPep Pharma GmbH, priority 1989, dated 1991).

Tests used:
[1] = tested on: hPTH-(44-68)-RIA; conditions: commercial RIA (Immundiagnostik), manufacturer's data
[2] = tested on: hPTH-(53-84)-RIA; conditions: commercial RIA (Immundiagnostik), manufacturer's data

| Molecule | Kreuzreaktion im hPTH-(44-68)-RIA [1] | Kreuzreaktion im hPTH-(53-84)-RIA [2] |
| --- | --- | --- |
| hPTH-(53-84): synthetisches hPTH-Peptid, Standard des C-terminalen RIA (KKEDNVLVESHEKSLGEADKADVNVLTKAKSQ; Parathyroid hormone; UniProt P01270 84-115, looked up, fragment) | 100% |  |
| hPTH-(28-48): synthetisches hPTH-Peptid (LQDVHNFVALGAPLAPRDAGS; Parathyroid hormone; UniProt P01270 59-79, looked up, fragment) | keine Kreuzreaktion | keine Kreuzreaktion |
| hPTH-(44-68): synthetisches hPTH-Peptid, Standard des mittelregionalen RIA (RDAGSQRPRKKEDNVLVESHEKSLG; Parathyroid hormone; UniProt P01270 75-99, looked up, fragment) |  | keine Kreuzreaktion |
| hPTH-(64-84): synthetisches hPTH-Peptid (EKSLGEADKADVNVLTKAKSQ; Parathyroid hormone; UniProt P01270 95-115, looked up, fragment) | keine Kreuzreaktion | 100% |
| hPTH-(1-34): bekanntes synthetisches N-terminales hPTH-Fragment (SVSEIQLMHNLGKHLNSMERVEWLRKKLQDVHNF; Parathyroid hormone; UniProt P01270 32-65, looked up, fragment) | keine Kreuzreaktion | keine Kreuzreaktion |
| hPTH-(1-84): sezerniertes PTH-Molekül aus 84 Aminosäuren (peptide, UniProt P01270 32-115, looked up, Parathyroid hormone, sezerniertes PTH-Molekül aus 84 Aminosäuren) Parathyroid hormone: SVSEIQLMHNLGKHLNSMERVEWLRKKLQDVHNFVALGAPLAPRDAGSQRPRKKEDNVLVESHEKSLGEADKADVNVLTKAKSQ | 100% | 100% |
